What was measured:
[1] = molecular target: T1, 5-hydroxytryptamine receptor 2C (Homo sapiens, UniProt P28335); assay: Compound was evaluated for the binding affinity towards 5-hydroxytryptamine 2C receptor by displacement of [3H]-Ketanserin
T1 sequence (P28335 whole entry): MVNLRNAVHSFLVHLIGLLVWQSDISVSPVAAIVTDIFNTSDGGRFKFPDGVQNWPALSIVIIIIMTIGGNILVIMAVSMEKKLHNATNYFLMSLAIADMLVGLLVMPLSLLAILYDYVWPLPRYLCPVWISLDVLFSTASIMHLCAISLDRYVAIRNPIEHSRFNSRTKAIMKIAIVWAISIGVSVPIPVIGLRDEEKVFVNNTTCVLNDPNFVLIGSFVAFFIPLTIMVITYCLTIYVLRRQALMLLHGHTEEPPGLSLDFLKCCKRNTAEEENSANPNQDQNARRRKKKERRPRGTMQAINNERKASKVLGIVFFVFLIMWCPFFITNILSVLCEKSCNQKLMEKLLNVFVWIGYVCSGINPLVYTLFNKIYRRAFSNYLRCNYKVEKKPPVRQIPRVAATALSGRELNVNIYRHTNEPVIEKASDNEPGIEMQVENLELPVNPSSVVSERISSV

[2] = molecular target: T2, D(1A) dopamine receptor (Homo sapiens, UniProt P21728); assay: Compound was evaluated for the binding affinity towards Dopamine receptor D1 by displacement of […].
[3] = molecular target: T3, D(2) dopamine receptor (Homo sapiens, UniProt P14416); assay: Binding affinity towards Dopamine receptor D2 by displacement of [3H]-Raclopride.
[4] = molecular target: T4, 5-hydroxytryptamine receptor 1A (Homo sapiens, UniProt P08908); assay: Binding affinity towards 5-hydroxytryptamine 1A receptor by displacement of [3H]8-OH-DPAT.
T4 sequence (P08908 whole entry): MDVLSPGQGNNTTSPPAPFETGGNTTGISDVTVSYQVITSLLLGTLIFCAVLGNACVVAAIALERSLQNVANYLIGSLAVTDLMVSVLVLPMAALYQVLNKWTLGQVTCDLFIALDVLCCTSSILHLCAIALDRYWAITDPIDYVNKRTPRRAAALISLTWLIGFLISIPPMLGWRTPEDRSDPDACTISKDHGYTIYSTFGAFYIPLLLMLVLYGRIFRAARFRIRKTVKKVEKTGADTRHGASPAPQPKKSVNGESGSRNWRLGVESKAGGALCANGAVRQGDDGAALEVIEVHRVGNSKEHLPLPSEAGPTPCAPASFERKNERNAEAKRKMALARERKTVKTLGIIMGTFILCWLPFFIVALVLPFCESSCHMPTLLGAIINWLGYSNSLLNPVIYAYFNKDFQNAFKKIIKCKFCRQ

[5] = molecular target: T5, 5-hydroxytryptamine receptor 1B (Homo sapiens, UniProt P28222); assay: Binding affinity towards 5-hydroxytryptamine 1B receptor by displacement of [3H]5-HT.
[6] = molecular target: 5-hydroxytryptamine receptor 2A (Homo sapiens, UniProt P28223); assay: Binding affinity towards 5-hydroxytryptamine 2A receptor by displacement of [3H]ketanserin
[7] = molecular target: T5, 5-hydroxytryptamine receptor 1B; assay: Compound was evaluated for the binding affinity towards 5-hydroxytryptamine 1B receptor by displacement of […].
[8] = molecular target: T2, D(1A) dopamine receptor; assay: Binding affinity towards Dopamine receptor D1 by displacement of [3H]SCH-23,390
[9] = molecular target: T3, D(2) dopamine receptor; assay: Compound was evaluated for the binding affinity towards Dopamine receptor D2 by displacement of […].
[10] = molecular target: T2, D(1A) dopamine receptor; assay: Compound was evaluated for the Dopamine receptor D1 by displacement of [3H]SCH-23390.

Sequence of 5-hydroxytryptamine receptor 2A (P28223 whole entry): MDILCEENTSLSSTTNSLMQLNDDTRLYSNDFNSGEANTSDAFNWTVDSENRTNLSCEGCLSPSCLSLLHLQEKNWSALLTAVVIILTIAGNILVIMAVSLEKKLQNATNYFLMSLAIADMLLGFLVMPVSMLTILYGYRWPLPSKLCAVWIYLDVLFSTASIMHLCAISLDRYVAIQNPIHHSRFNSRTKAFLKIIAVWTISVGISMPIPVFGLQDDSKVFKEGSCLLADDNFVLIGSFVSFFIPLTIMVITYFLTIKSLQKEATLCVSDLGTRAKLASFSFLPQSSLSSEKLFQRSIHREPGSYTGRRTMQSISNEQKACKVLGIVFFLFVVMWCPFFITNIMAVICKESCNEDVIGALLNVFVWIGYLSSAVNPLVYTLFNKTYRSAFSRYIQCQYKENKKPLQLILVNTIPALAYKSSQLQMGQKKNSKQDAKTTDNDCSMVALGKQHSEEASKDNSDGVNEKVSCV
T2 sequence (P21728 whole entry): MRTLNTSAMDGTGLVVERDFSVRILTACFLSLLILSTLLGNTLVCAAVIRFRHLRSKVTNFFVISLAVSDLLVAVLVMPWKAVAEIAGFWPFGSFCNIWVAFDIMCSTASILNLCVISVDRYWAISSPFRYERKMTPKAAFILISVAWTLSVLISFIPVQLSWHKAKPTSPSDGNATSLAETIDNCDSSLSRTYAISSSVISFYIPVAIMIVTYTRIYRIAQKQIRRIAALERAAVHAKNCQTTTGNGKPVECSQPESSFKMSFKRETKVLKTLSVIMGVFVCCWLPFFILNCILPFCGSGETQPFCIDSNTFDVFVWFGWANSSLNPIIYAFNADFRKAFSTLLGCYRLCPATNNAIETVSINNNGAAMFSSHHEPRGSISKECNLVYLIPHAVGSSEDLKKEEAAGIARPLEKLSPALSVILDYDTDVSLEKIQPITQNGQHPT
T3 sequence (P14416 whole entry): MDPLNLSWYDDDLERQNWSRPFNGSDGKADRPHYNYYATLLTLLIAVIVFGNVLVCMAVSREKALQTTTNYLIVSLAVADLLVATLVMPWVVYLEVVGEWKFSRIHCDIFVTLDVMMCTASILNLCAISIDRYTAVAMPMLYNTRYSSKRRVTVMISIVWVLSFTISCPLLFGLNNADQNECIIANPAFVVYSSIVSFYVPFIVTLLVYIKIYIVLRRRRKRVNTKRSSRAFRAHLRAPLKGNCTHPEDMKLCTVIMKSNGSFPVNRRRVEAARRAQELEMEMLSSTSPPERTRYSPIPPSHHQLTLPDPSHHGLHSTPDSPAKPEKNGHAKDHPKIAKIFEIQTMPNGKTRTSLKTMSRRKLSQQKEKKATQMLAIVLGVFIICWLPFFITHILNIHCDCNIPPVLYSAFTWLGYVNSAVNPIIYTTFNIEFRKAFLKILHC
T5 sequence (P28222 whole entry): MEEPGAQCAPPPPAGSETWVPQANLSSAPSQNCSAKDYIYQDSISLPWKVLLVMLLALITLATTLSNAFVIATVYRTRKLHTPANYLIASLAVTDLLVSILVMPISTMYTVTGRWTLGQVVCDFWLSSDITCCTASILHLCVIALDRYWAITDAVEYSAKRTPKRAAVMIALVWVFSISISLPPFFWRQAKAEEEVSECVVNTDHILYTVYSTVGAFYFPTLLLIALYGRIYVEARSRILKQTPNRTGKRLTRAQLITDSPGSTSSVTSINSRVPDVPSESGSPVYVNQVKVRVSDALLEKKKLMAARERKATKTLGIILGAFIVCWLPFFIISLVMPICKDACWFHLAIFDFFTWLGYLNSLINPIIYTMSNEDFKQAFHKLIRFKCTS

Row | Compound | IC50 [1] [µM] | IC50 [2] [µM] | IC50 [3] [µM] | IC50 [4] [µM] | IC50 [5] [µM] | IC50 [6] [µM] | IC50 [7] [µM] | IC50 [8] [µM] | IC50 [9] [µM] | IC50 [10] [µM]
1 | CCCN(CCC)CC1COc2cccc(OC)c2C1 (stereo unspecified) | 33.9 | 34.7 | 2.57 | 0.234 | 22.9 | 15.8 |  |  |  | 
2 | O=C1CC2(CCCC2)CC(=O)N1CCCCNCC1COc2ccccc2C1 (stereo unspecified) |  |  | 0.0676 | 0.00631 | 6.92 | 0.0562 |  | 3.31 |  | 
3 | CCCN1CCN(Cc2ccccc2)CC12COc1cccc(OC)c1C2 (stereo unspecified) |  |  |  | 15.8 | 35.5 | 24.5 |  |  |  | 
4 | CCCN(CCC)CC1(N(CCC)CCC)COc2cccc(OC)c2C1 (stereo unspecified) |  |  |  | 4.17 | 138 | 214 |  |  |  | 
5 | CCCN1CCN(CCC)C2(COc3cccc(OC)c3C2)C1 (stereo unspecified) |  |  |  | 3.02 | > 100 | 10 |  |  |  | 

Now from value to molecule:

Row | IC50 [1] [µM] | IC50 [2] [µM] | IC50 [3] [µM] | IC50 [4] [µM] | IC50 [5] [µM] | IC50 [6] [µM] | IC50 [7] [µM] | IC50 [8] [µM] | IC50 [9] [µM] | IC50 [10] [µM] | Compound
6 |  |  |  | 0.0107 | 3.8 |  | 6.61 | > 10 | 1.1 |  | COc1cccc2c1CC1(CCCN1CCCCN1C(=O)CC3(CCCC3)CC1=O)CO2 (stereo unspecified)
7 |  |  |  | 15.8 | 1.58 | 11.2 |  |  |  |  | CCCN1CCN(CCCCN2C(=O)CC3(CCCC3)CC2=O)CC12COc1cccc(OC)c1C2 (stereo unspecified)
8 |  |  | 0.01 |  |  | 1 |  |  |  | 39.8 | CCCN(CCCCN1C(=O)CC2(CCCC2)CC1=O)C1COc2cccc(OC)c2C1 (stereo unspecified)
9 |  |  | 0.0295 | 0.000129 | 3.02 | 0.049 |  | 0.832 |  |  | COc1cccc2c1CC(CNCCCCN1C(=O)CC3(CCCC3)CC1=O)CO2 (stereo unspecified)
10 |  |  | 1.78 | 0.513 | 7.41 | 7.76 |  | 13.8 |  |  | CCCN(CCCCN1C(=O)CC2(CCCC2)CC1=O)CC1COc2cccc(OC)c2C1 (stereo unspecified)
